Experimental data published in ChEMBL document CHEMBL1201862, “PubChem BioAssay data set” (2004).
Values belong to the compound of their own block, whether it stands above or below them. Calls of active or inactive are those of the source.

Legend:
[1] = target: T1, DNA repair and recombination protein RAD54-like (Homo sapiens, UniProt Q92698); test: inhibitors of human RAD54 branch migration, confirmation, biochemical, fluorescence, cherry-picked samples, dose series (AID 651657); format: functional
T1 sequence (Q92698 whole entry): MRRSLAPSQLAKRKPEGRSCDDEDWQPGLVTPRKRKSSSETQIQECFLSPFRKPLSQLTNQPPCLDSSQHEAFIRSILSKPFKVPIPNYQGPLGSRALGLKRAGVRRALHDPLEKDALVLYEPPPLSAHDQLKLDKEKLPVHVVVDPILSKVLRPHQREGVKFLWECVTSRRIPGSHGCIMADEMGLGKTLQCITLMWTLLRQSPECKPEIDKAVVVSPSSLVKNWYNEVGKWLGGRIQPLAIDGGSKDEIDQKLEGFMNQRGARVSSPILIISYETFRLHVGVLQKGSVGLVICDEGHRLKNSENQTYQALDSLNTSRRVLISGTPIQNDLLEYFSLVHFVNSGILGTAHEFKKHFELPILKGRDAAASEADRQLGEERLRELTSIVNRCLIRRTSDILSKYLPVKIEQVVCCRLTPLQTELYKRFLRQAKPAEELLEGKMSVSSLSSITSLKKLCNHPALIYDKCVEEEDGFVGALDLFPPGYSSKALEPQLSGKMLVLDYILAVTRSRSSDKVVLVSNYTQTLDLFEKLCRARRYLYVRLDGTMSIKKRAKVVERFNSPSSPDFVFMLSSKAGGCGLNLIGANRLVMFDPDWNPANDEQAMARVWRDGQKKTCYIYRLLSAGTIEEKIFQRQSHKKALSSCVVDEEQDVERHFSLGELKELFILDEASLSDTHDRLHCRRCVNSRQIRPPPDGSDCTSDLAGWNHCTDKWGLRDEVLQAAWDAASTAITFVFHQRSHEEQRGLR

[2] = DNA binding of candidate compounds, dose response, artefact control for RAD54 inhibitor project, biochemical, fluorescence polarization, cherry-pick (AID 651673); format: functional
[3] = target: T2, Sentrin-specific protease 1 (Homo sapiens, UniProt Q9P0U3); test: Dose response confirmation of small molecule inhibitors of the catalytic domain of the SUMO protease, SENP1 in a FRET assay.; format: functional; conditions: read-out: IC50_Mean
T2 sequence (Q9P0U3 whole entry): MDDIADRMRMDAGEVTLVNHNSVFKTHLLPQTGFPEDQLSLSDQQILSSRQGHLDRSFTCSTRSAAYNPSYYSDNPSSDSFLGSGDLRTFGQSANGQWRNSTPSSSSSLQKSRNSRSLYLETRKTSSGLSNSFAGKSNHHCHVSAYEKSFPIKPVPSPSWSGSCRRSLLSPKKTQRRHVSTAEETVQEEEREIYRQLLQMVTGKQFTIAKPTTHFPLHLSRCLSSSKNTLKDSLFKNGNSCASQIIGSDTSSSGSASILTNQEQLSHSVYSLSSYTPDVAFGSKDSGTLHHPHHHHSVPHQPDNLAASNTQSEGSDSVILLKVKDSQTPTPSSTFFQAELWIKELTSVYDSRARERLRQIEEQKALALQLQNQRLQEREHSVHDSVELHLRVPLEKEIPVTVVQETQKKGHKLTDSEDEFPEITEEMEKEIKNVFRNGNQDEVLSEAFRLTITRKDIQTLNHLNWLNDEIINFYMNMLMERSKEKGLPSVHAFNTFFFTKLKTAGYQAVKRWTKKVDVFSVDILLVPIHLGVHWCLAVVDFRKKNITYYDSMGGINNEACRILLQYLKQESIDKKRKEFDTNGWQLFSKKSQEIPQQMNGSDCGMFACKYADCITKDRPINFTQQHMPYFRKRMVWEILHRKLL

[4] = target: T3, Low molecular weight phosphotyrosine protein phosphatase (Homo sapiens, UniProt P24666); format: functional; conditions: read-out: IC50_Mean
T3 sequence (P24666 whole entry): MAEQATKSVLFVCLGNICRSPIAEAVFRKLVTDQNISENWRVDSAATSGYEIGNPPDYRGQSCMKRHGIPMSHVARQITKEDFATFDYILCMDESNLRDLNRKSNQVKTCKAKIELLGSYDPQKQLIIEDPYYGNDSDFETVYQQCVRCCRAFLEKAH

[5] = target: Dual specificity tyrosine-phosphorylation-regulated kinase 1A (Rattus norvegicus, UniProt Q63470); format: biochemical, Homo sapiens
[6] = target: T4, Tyrosine-protein phosphatase non-receptor type 22 (Homo sapiens, UniProt Q9Y2R2); test: LYP phosphatase inhibition for selectivity, dose response, selectivity assay for LMPTP inhibitor project, biochemical, fluorescence, LYP catalytic domain (AID 652006); format: functional; conditions: read-out: IC50_Mean
T4 sequence (Q9Y2R2 whole entry): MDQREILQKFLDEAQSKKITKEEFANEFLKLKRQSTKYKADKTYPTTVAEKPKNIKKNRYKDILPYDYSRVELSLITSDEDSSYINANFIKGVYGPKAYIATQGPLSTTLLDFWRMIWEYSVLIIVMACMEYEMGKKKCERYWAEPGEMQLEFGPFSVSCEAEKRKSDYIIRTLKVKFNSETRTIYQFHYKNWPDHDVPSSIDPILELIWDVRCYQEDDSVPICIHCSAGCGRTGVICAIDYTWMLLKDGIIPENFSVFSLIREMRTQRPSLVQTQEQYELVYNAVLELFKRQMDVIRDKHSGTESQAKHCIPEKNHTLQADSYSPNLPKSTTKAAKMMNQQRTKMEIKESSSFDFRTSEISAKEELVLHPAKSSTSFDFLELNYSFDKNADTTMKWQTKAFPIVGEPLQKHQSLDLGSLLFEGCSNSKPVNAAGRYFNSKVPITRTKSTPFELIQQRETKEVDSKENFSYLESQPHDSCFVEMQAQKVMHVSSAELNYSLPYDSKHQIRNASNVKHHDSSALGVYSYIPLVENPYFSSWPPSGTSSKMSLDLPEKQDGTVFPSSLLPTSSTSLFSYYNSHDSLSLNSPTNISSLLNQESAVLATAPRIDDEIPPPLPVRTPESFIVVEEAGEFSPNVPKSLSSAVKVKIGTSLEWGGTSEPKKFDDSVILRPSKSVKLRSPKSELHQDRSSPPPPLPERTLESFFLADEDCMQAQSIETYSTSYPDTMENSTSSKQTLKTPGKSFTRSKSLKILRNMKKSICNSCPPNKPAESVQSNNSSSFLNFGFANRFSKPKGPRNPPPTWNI

[7] = target: T3, Low molecular weight phosphotyrosine protein phosphatase; format: functional; conditions: read-out: IC50_Mean; remark: listed apart in the source
[8] = StAR promoter reporter inhibition counter-screen, dose response, counter-screen for LRH-1 inverse agonist project, cell-based, luminescence, luciferase reporter (AID 651969); format: functional
Steroidogenic factor 1 = Steroidogenic factor 1 (Homo sapiens, UniProt Q13285); test: Counterscreen for inverse agonists of the liver receptor homolog-1 (LRH-1; NR5A2): Luminescence-based cell-based high throughput dose response assay to identify inverse agonists of the Steroidogenic Factor 1 Nuclear Receptor (SF1; NR5A1).; format: functional
[9] = target: Nuclear receptor subfamily 5 group A member 2 (Homo sapiens, UniProt O00482); format: functional, cell-based;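 also: HEK293T cells transfected with LRH-1 and a StAR promoter luciferase reporter; potency for inhibitors that lower LRH-1 driven reporter light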
Insulin-degrading enzyme = target: T5, Insulin-degrading enzyme (Homo sapiens, UniProt P14735); test: Dose Response: Fluorescence polarization-based cell-based high throughput dose response assay for inhibitors of insulin-degrading enzyme (IDE). [Related pubchem assays: 434962 (Primary screen (IDE inhibitors in singlicate)), 449730 (Counterscreen (Cytotoxicity in triplicate)), 435028 (Confirmation (IDE inhibitors in triplicate)), 434984 (Summary …; format: functional
T5 sequence (P14735 whole entry): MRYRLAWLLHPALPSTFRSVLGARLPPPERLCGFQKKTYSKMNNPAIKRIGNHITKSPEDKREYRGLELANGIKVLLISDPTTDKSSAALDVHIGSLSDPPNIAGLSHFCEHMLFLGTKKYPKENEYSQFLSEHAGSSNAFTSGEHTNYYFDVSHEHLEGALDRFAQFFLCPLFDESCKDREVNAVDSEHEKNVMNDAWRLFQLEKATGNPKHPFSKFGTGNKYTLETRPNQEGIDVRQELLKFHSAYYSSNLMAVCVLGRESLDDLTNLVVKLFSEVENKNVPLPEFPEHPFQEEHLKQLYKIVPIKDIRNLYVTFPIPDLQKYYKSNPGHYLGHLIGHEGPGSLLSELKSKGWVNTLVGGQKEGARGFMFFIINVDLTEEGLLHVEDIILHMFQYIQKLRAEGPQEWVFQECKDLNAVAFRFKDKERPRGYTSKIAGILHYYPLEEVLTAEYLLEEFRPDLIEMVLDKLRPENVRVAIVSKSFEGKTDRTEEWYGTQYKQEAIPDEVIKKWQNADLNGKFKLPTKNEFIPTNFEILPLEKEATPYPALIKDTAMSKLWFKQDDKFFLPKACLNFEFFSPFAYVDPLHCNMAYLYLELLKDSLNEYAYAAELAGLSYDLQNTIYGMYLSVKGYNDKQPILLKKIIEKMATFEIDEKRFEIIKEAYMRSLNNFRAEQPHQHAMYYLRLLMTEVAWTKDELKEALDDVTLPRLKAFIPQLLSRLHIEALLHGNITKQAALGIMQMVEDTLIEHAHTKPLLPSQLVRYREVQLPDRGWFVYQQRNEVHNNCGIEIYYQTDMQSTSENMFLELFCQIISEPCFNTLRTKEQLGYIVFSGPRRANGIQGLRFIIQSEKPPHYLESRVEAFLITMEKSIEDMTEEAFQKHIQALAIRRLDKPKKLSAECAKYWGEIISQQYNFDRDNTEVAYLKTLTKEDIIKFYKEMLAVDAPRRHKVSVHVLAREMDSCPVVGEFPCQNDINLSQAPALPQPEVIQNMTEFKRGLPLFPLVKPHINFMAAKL

[10] = target: Glucose-6-phosphate 1-dehydrogenase (Homo sapiens, UniProt P11413); test: human G6PD enzyme inhibitors, dose response, selectivity assay for P. falciparum G6PD inhibitor project, biochemical, fluorescence (AID 504792); format: functional
[11] = target: T6, Mitochondrial peptide methionine sulfoxide reductase (Bos taurus, UniProt P54149); test: Absorbance-based biochemical high throughput dose response assay for activators of Methionine sulfoxide reductase A (MsrA).; format: functional
T6 sequence (P54149 whole entry): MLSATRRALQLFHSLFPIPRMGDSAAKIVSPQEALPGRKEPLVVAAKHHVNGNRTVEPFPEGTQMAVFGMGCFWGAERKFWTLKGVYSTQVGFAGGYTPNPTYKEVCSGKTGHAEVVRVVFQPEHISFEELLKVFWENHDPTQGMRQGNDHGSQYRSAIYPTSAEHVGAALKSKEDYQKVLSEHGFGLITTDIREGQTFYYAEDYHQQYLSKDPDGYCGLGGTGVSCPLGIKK

[12] = Counterscreen for IDE inhibitors: Luminescence-based cell-based high throughput dose response assay to identify compounds that are cytotoxic to HEK cells. [Related pubchem assays: 434962 (Primary screen (IDE inhibitors in singlicate)), 449730 (Counterscreen (Cytotoxicity in triplicate)), 435028 (Confirmation (IDE inhibitors in triplicate)) …; format: functional; conditions: HEK293
Large T antigen = Large T antigen (Simian virus 40, UniProt P03070); format: functional, Betapolyomavirus macacae;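 also: Confirmatory-stage PubChem screen for compounds that inhibit SV40 T antigen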
Paired box protein Pax-8 = Paired box protein Pax-8 (Homo sapiens, UniProt Q06710); test: inhibitors of PAX8-driven TPO luciferase reporter, dose response, RMG-I cells, cherry-pick (AID 687027); format: functional, cell-based;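 also: luciferase reporter driven by Pax8 target thyroperoxidase promoter measured by SteadyGlo luminescence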
[13] = NIH/3T3 fibroblast cytotoxicity, dose response, cytotoxicity control for T. cruzi growth inhibitor project, cell-based, cherry-pick samples, set 2 (AID 651817); format: functional; conditions: NIH3T3
[14] = target: T7, Probable nicotinate-nucleotide adenylyltransferase (Staphylococcus aureus (strain N315), UniProt P65502); format: functional, Staphylococcus aureus subsp. aureus N315;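 as to IC50 Mean: confirmatory dose-response retesting of NadD inhibitor hits first found in an ultra-high-throughput screen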
[15] = target: T7, Probable nicotinate-nucleotide adenylyltransferase; format: functional, Staphylococcus aureus subsp. aureus N315; conditions: read-out: IC50_Mean
[16] = target: T2, Sentrin-specific protease 1; test: potency of human SENP1 inhibitors, dose response, biochemical, kinetic FRET (AID 651697); format: functional; conditions: read-out: IC50_Mean
[17] = target: Potassium voltage-gated channel subfamily KQT member 2 (Rattus norvegicus, UniProt O88943); test: KCNQ2 potassium channel inhibitors, dose response, cell-based, automated electrophysiology, set II, rat KCNQ2 (AID 588637); format: functional
Chain of Potassium voltage-gated channel subfamily KQT member 2 (O88943 whole entry): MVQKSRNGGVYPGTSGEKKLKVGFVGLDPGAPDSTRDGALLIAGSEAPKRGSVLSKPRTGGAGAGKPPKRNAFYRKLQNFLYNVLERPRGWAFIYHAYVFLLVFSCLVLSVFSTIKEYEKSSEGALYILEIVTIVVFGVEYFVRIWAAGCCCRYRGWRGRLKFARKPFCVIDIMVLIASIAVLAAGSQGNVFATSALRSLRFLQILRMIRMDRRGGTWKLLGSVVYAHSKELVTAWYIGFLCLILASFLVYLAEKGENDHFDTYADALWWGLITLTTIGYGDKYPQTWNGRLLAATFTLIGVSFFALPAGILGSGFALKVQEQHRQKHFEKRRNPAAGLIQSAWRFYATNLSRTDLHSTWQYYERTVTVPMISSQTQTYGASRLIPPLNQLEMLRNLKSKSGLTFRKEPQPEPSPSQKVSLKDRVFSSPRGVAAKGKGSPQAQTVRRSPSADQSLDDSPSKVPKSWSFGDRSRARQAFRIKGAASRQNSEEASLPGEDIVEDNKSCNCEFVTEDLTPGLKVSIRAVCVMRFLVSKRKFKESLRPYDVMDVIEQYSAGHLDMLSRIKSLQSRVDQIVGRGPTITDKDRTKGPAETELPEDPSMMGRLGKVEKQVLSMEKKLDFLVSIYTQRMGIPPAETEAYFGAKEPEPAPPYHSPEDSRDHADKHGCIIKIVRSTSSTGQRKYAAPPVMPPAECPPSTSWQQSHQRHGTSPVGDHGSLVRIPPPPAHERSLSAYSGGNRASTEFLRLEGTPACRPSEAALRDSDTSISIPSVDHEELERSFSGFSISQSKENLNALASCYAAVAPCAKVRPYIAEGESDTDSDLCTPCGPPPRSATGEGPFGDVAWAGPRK

Chain of Nuclear receptor subfamily 5 group A member 2 (O00482 whole entry): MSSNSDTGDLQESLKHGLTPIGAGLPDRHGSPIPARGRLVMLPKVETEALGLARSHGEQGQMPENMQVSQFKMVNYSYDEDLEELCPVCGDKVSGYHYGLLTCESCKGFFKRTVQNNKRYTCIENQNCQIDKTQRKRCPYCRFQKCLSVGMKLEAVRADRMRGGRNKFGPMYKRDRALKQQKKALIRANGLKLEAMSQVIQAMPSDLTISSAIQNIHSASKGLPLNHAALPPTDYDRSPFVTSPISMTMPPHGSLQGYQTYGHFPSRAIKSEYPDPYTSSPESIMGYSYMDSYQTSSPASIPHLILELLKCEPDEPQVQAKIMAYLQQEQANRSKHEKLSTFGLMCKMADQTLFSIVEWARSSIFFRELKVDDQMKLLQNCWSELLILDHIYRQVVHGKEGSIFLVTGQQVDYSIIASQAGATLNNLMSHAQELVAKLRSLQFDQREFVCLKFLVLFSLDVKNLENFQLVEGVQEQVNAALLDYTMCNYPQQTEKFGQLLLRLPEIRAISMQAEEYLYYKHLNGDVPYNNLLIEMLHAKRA
Chain of Large T antigen (P03070 whole entry): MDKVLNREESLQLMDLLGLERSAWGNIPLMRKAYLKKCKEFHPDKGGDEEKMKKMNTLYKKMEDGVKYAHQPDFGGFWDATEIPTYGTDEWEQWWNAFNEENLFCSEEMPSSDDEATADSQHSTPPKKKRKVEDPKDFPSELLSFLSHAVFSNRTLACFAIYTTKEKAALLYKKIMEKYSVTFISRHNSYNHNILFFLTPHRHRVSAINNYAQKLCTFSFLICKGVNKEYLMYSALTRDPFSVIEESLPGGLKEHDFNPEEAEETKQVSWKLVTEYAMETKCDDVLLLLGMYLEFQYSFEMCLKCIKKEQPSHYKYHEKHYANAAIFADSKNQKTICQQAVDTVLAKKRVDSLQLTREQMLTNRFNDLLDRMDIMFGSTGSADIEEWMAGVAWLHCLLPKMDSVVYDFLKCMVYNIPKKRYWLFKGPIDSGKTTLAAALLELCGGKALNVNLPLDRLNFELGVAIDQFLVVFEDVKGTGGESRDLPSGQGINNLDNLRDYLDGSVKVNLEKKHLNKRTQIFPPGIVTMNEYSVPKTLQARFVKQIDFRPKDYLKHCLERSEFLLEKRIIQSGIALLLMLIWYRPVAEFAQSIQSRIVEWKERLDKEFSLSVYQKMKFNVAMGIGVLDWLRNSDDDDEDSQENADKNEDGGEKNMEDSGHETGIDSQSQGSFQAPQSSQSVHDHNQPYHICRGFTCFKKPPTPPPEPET
Chain of Glucose-6-phosphate 1-dehydrogenase (P11413 whole entry): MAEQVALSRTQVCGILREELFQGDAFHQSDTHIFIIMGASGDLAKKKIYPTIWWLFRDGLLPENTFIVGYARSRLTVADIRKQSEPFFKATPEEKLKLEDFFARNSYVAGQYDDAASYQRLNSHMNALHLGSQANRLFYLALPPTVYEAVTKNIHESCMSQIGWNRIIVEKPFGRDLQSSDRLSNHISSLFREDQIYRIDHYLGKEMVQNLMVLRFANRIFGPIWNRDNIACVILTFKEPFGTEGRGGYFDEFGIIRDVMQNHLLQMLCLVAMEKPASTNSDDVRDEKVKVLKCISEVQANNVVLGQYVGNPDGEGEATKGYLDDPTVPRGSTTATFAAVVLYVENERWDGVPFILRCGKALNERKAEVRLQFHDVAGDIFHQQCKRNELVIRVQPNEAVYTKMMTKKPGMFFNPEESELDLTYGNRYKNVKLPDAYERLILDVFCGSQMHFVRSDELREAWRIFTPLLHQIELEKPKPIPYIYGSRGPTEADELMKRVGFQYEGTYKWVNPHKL
Chain of Steroidogenic factor 1 (Q13285 whole entry): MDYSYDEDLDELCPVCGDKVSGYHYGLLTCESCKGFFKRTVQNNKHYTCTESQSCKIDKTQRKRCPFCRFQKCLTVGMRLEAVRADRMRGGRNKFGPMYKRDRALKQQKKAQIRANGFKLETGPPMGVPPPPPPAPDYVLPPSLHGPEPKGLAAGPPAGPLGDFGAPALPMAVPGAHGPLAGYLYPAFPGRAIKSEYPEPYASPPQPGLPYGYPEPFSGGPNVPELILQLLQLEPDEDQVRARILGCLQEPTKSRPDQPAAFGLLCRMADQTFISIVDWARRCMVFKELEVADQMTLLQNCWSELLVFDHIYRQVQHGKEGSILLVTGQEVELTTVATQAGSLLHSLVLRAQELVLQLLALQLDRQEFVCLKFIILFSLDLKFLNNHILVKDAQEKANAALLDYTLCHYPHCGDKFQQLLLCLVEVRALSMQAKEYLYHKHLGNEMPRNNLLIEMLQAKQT
Chain of Paired box protein Pax-8 (Q06710 whole entry): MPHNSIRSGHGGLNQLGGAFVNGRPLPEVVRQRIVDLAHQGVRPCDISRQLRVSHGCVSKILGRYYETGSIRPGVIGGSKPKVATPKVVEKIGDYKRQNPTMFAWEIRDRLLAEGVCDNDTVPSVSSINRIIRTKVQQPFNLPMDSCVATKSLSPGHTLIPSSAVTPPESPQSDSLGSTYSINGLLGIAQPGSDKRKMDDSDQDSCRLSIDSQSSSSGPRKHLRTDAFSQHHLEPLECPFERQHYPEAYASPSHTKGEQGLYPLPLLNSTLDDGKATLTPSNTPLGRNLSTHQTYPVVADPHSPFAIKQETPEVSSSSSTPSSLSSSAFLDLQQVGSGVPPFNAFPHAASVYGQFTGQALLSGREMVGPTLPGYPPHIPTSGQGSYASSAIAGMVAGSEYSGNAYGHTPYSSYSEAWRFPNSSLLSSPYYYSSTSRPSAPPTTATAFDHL

AC50 [1]: 6.59 µM (active) | IC50 [3]: 46.3 µM (inactive)
SMILES: CCN(CC)CCNc1cccc2sc3ccccc3c(=O)c12
AC50 [2]: 51.4 µM (active)

IC50 [4]: 22.7 µM (inactive) | AC50 [5]: 6.73 µM (active) | IC50 [6]: 80 µM (inactive) | IC50 [7]: 6.78 µM (active)
SMILES: Cc1ccccc1Nc1cc(C)c2c(O)cccc2n1

IC50 [3]: 4.9 µM (active) | IC50 [16]: 5.42 µM (active)
SMILES: CCN(CC(=O)Nc1ccc(NC(C)=O)cc1)C(=O)CSc1ncnc2sc(C)c(C)c12

Further lines, the compound ahead of its results:

SMILES: COc1ccc(CCNC(=O)COC(=O)c2cccn2C)cc1
IC50 [8]: 35.9 µM (inactive) | IC50 (Steroidogenic factor 1): 7.32 µM (active) | IC50 [9]: 35.9 µM (inactive)

SMILES: CS(=O)(=O)c1ccc(N)c(SSc2cc(S(C)(=O)=O)ccc2N)c1
IC50 (Insulin-degrading enzyme): 7.08 µM (active) | IC50 [10]: 23.9 µM (inactive) | EC50 [11]: > 104 µM (inactive) | IC50 [12]: > 55.7 µM (not active) | IC50 (Large T antigen): 13 µM (active)

SMILES: Cc1ccc(S(=O)(=O)Nc2ccc3c(c2)CC(=O)N([C@H](C)CO)C[C@H](C)[C@@H](CN(C)Cc2ccc(Cl)c(Cl)c2)O3)cc1
AC50 (Paired box protein Pax-8): 13.3 µM (active) | AC50 [13]: 13 µM (active)

SMILES: CC(C)(C)n1nc2c(c1NC(=O)c1ccc(S(=O)(=O)N3CCCC3)cc1)CSC2
IC50 [14]: 12.7 µM (active) | IC50 [15]: 36.1 µM (active)

SMILES: COc1ccc(-c2cc(C(=O)N3CC(C)CC(C)C3)c3ccccc3n2)cc1OC (configuration not stated)
IC50 [17]: 1.51 µM (active)
